In ChEMBL document CHEMBL4184304, “Design and synthesis of novel and potent GPR119 agonists with a spirocyclic structure” (Bioorg Med Chem Lett, 2018):
≈ marks a conversion by molar mass, not a printed value.

Experiments:
[1] = target: T1, Glucose-dependent insulinotropic receptor (Homo sapiens) (UniProt Q8TDV5); test: Agonist activity at human GPR119 expressed in HEK293 cells assessed as increase in intracellular cAMP level after 30 mins relative to oleoylethanolamide; type: functional, cell-based
T1 sequence (whole entry): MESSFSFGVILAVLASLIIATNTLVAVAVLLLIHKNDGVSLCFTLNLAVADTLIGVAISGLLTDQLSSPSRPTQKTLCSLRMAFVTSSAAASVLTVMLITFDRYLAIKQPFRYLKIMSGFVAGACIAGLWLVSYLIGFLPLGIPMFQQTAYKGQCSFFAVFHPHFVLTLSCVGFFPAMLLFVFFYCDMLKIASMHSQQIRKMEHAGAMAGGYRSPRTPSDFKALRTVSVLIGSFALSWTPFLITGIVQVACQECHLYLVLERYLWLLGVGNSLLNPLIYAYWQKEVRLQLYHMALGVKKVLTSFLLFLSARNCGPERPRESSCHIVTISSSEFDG

[2] = target: T2, Glucose-dependent insulinotropic receptor (Homo sapiens, UniProt Q8TDV5); test: Agonist activity at human GPR119 expressed in HEK293 cells assessed as increase in intracellular cAMP level after 30 mins; type: functional, cell-based
T2 sequence (Q8TDV5 whole entry): T1 sequence (whole entry)

[3] = Solubility in fed state simulated intestinal fluid; type: physicochemical
Cytochrome P450 2C19 = Cytochrome P450 2C19 (Homo sapiens, UniProt P33261); test: Inhibition of CYP2C19 (unknown origin); type: ADME
Cytochrome P450 2C19, sequence (P33261 whole entry): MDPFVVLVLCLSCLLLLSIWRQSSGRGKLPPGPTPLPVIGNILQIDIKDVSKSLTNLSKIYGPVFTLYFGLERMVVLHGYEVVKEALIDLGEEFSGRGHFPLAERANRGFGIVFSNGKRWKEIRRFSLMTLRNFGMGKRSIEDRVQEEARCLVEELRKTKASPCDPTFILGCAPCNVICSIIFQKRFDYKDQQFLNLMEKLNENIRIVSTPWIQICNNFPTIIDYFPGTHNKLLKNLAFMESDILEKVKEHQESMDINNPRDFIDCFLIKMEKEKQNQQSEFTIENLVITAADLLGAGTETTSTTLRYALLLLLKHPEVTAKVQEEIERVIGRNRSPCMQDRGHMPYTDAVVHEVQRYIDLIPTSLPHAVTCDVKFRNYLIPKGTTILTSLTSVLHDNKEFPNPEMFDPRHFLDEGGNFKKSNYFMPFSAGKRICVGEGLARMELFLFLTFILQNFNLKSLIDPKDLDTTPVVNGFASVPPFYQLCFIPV

Cytochrome P450 2C9 = Cytochrome P450 2C9 (Homo sapiens, UniProt P11712); test: Inhibition of CYP2C9 (unknown origin); type: ADME
Cytochrome P450 2C9, sequence (P11712 whole entry): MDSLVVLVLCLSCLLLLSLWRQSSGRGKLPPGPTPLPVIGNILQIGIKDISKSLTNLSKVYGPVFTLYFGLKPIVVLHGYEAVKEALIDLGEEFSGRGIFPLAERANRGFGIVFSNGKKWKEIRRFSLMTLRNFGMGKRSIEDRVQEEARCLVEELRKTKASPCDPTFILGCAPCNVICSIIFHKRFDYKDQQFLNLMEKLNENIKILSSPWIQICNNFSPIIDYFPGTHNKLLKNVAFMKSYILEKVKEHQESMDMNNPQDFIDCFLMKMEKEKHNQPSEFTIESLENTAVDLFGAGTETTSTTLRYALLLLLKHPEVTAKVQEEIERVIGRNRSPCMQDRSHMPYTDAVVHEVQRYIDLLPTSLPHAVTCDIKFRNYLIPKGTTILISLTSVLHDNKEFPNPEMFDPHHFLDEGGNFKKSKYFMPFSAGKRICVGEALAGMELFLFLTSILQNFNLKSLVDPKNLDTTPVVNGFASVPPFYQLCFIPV

Cytochrome P450 2C8 = target: T3, Cytochrome P450 2C8 (Homo sapiens, UniProt P10632); test: Inhibition of CYP2C8 (unknown origin); type: ADME
T3 sequence (P10632 whole entry): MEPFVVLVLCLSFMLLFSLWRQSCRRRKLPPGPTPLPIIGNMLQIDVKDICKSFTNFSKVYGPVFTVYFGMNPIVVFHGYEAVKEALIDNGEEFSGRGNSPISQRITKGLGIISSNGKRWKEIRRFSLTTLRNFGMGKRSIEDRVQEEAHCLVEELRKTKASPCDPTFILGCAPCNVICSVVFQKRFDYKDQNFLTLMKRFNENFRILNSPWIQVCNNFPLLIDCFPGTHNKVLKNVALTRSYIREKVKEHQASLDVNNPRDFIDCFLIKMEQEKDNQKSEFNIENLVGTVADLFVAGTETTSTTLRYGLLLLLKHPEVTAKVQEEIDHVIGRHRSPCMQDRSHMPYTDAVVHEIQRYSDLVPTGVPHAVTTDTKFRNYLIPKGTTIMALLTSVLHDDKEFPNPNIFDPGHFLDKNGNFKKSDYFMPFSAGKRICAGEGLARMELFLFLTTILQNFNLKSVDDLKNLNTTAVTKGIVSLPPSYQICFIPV

Cytochrome P450 2D6 = Cytochrome P450 2D6 (Homo sapiens, UniProt P10635); test: Inhibition of CYP2D6 (unknown origin); type: ADME
Cytochrome P450 2D6, sequence (P10635 whole entry): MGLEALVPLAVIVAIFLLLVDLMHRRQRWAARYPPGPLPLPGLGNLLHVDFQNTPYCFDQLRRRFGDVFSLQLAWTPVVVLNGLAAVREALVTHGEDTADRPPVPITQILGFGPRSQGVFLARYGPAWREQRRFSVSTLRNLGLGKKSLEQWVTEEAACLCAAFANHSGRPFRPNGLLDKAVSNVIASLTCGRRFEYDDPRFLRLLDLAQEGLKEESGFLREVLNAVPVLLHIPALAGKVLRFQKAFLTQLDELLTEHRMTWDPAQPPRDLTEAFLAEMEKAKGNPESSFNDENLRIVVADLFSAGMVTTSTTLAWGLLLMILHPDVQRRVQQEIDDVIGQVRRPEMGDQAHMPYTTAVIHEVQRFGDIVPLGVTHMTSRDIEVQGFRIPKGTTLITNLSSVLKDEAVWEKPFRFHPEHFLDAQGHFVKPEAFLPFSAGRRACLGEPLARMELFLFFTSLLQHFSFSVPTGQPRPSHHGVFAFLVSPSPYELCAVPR

Cytochrome P450 3A4 = Cytochrome P450 3A4 (Homo sapiens, UniProt P08684); test: Inhibition of CYP3A4 (unknown origin); type: ADME
Cytochrome P450 3A4, sequence (P08684 whole entry): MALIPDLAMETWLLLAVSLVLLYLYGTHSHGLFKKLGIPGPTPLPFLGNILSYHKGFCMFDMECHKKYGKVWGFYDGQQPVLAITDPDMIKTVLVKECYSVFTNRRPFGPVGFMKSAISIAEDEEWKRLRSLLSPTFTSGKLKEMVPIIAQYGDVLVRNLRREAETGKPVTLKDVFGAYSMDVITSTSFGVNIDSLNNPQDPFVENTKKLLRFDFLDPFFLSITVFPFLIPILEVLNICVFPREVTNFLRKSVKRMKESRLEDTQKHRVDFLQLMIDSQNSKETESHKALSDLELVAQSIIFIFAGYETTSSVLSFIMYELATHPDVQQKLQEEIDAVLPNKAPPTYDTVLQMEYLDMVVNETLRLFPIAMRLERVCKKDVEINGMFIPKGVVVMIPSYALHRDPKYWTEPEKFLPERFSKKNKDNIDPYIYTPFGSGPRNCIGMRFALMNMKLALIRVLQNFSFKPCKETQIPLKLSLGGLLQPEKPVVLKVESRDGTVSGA

Rattus norvegicus [4] = test: Antidiabetic activity in Sprague-Dawley rat assessed as glucose concentration-dependent insulin secretion by measuring reduction in blood glucose AUC at 1 mg/kg, po pretreated for 30 mins followed by glucose-challenge measured up to 120 mins by ipGTT relative to control; type: functional; parameters: scale not given: the % may be the effect or the level left
Rattus norvegicus [5] = test: Antidiabetic activity in Sprague-Dawley rat assessed as glucose concentration-dependent insulin secretion by measuring reduction in blood glucose AUC at 0.3 mg/kg, po pretreated for 30 mins followed by glucose-challenge measured up to 120 mins by ipGTT relative to control; type: functional; parameters: scale not given: the % may be the effect or the level left
Cytochrome P450 1A2 = target: T4, Cytochrome P450 1A2 (Homo sapiens, UniProt P05177); test: Inhibition of CYP1A2 (unknown origin); type: ADME
T4 sequence (P05177 whole entry): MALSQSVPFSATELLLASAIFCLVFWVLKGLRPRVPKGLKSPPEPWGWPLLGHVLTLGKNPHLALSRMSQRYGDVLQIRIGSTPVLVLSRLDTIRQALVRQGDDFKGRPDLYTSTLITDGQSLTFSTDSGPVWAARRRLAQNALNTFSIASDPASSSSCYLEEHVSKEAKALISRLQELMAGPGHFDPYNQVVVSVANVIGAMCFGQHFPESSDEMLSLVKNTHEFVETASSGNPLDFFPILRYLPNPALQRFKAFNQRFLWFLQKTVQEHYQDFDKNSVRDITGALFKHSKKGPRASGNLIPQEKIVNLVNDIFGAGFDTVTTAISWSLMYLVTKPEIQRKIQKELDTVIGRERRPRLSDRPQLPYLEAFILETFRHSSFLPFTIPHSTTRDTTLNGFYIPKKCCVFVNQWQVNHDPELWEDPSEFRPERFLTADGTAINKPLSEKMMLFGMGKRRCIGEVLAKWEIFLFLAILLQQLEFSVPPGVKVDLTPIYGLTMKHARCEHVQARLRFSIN

SMILES	Activity [1]	EC50 [2]	also measured
CN(C)C(=O)c1ccc(OCCCCCC2CCC3(CC2)OCCO3)cc1	92%	88 nM	
CN(C)C(=O)c1ccc(OCCCCC[C@H]2CC[C@]3(CCC(C)(C)O3)CC2)cc1	64%	511 nM	
CN(C)C(=O)c1ccc(OCCCCC[C@H]2CC[C@@]3(CC2)CC(C)(C)CCO3)cc1	110%	7 nM	
CN(C)C(=O)c1ccc(OCCCCCC2CCC3(CC2)OCCCO3)cc1	96%	29 nM	
CC(C)(C)OC(=O)N1CCC(CCCCCOc2ccc(S(C)(=O)=O)cc2)CC1	93%	14 nM	solubility [3]: 15.9 µM (≈ 6.77 µg/mL)
CN(C)C(=O)c1ccc(OCCCCC[C@H]2CC[C@]3(CCCO3)CC2)cc1	84%	95 nM	
CN(C)C(=O)c1ccc(OCCCCCC2CCC3(CCCCC3)CC2)cc1	91%	27 nM	
CN(C)C(=O)c1ccc(OCCCCCC2CCN(C(=O)OC(C)(C)C)CC2)cc1	97%	5 nM	solubility [3]: 74.2 µM (≈ 31.1 µg/mL)
CN(C)C(=O)c1ccc(OCCCCC[C@H]2CC[C@@]3(CCCO3)CC2)cc1	89%	132 nM	
CN(C)C(=O)c1ccc(OCCCCC[C@H]2CC[C@@]3(CC2)CC(C)(C)CO3)cc1	99%	4 nM	
CC(C)(C)OC(=O)N1CCC(CCCCCCOc2ccc(S(C)(=O)=O)cc2)CC1	72%	78 nM	
CC(C)OC(=O)N1CCC(CCCCCOc2ccc(C(=O)N(C)C)cc2)CC1	102%	10 nM	IC50 (Cytochrome P450 2C19): < 10000 nM; solubility [3]: 222 µM (≈ 89.7 µg/mL); IC50 (Cytochrome P450 2C9): < 10000 nM; IC50 (Cytochrome P450 2C8): < 10000 nM
CN(C)C(=O)c1ccc(OCCCCC[C@H]2CC[C@]3(CCCCO3)CC2)cc1	96%	36 nM	
CC(C)(C)OC(=O)N1CCC(CCCCOc2ccc(S(C)(=O)=O)cc2)CC1	100%	209 nM	
CC(C)(C)OC(=O)N1CCC(CCCOc2ccc(S(C)(=O)=O)cc2)CC1	106%	353 nM	
CN(C)C(=O)c1ccc(OCCCCC[C@H]2CC[C@@]3(CCCCO3)CC2)cc1	96%	21 nM	
CN(C)C(=O)c1ccc(OCCCCC[C@H]2CC[C@]3(CC2)COC(C)(C)C3)cc1	104%	4 nM	IC50 (Cytochrome P450 2C19): > 10000 nM; IC50 (Cytochrome P450 2D6): > 10000 nM; solubility [3]: 442 µM (≈ 177 µg/mL); IC50 (Cytochrome P450 3A4): > 10000 nM; Activity (Rattus norvegicus [4]): 33%; Activity (Rattus norvegicus [5]): 14%; IC50 (Cytochrome P450 2C9): > 10000 nM; IC50 (Cytochrome P450 1A2): > 10000 nM; IC50 (Cytochrome P450 2C8): > 10000 nM
